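A five-concentration, 48-hour dose response in 96-well plates underlies each endpoint, interpolated linearly between surrounding concentrations. TGI: total growth inhibition.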
What was measured:
Experiment in all cases: NCI tumour cell line growth inhibition, 48 h
MDA-MB-231 breast = tested on: MDA-MB-231 breast
MDA-N = tested on: MDA-N
SNB-75 CNS = tested on: SNB-75 CNS
DLD-1 colon = tested on: DLD-1 colon
LXFL 529 NSCLC = tested on: LXFL 529 NSCLC
M19-MEL melanoma = tested on: M19-MEL melanoma
KM20L2 colon = tested on: KM20L2 colon
P388 leukemia = tested on: P388 leukemia
P388/ADR leukemia = tested on: P388/ADR leukemia
SN12K1 renal = tested on: SN12K1 renal

| Compound | TGI (MDA-MB-231 breast) [µM] | TGI (MDA-N) [µM] | TGI (SNB-75 CNS) [µM] | TGI (DLD-1 colon) [µM] | TGI (LXFL 529 NSCLC) [µM] | TGI (M19-MEL melanoma) [µM] | TGI (KM20L2 colon) [µM] | TGI (P388 leukemia) [µM] | TGI (P388/ADR leukemia) [µM] | TGI (SN12K1 renal) [µM] |
| --- | --- | --- | --- | --- | --- | --- | --- | --- | --- | --- |
| Cc1cc(C)nc(NS(=O)(=O)c2ccc(Nc3c4ccccc4nc4c(C(=O)NCCCN(CCO)CCO)cccc34)cc2)n1 | 88.6 | 83.7 | 23.1 | – | – | – | – | – | – | – |
| CN1C2CC(=O)CC1[C@H](O)[C@@H]2O | > 100 | > 100 | – | – | – | – | – | – | – | – |
| Cc1[nH]c(=O)nc(N/N=C/c2ccc(Cl)cc2)c1C(=O)NC(C)(CO)CO | – | > 100 | > 100 | – | – | – | – | – | – | – |
| CCOC(=O)c1csc(NC(=O)CCN2CCCCC2)n1 | > 100 | > 100 | – | – | – | – | – | – | – | – |
| COc1cc(C2C(Cl)C(=O)N2NC(=O)c2ccccc2O)ccc1O (centres undefined) | – | – | – | > 100 | > 100 | > 100 | – | – | – | – |
| CC1(C23CC4CC(CC(C4)C2)C3)n2c(=O)n(-c3ccccc3)c(=O)n2C1(C)C12CC3CC(CC(C3)C1)C2 (centres undefined) | > 100 | > 100 | > 100 | – | – | – | – | – | – | – |
| CCC1=CC2CN3CCc4c([nH]c5ccccc45)C(C(=O)OC)(C2)C13 (centres undefined) | – | – | 89.9 | 87.5 | – | 85.8 | 19.3 | 93.1 | 131 | 39.6 |
| CCCCC(C)C1CCC2(C)C=CC(=O)C(C)=C2C1O (centres undefined) | – | – | > 100 | > 100 | – | > 100 | > 100 | > 100 | > 100 | > 100 |

From PubChem BioAssay (NCI)
